Assay results: US9249127B2 (Orion Corporation, priority 2012, dated 2016)
Like-named read-outs stand apart in the source and are kept apart here.

Target: T1, alpha2A receptor (Homo sapiens, UniProt P08913)
T1 sequence (P08913 1-465): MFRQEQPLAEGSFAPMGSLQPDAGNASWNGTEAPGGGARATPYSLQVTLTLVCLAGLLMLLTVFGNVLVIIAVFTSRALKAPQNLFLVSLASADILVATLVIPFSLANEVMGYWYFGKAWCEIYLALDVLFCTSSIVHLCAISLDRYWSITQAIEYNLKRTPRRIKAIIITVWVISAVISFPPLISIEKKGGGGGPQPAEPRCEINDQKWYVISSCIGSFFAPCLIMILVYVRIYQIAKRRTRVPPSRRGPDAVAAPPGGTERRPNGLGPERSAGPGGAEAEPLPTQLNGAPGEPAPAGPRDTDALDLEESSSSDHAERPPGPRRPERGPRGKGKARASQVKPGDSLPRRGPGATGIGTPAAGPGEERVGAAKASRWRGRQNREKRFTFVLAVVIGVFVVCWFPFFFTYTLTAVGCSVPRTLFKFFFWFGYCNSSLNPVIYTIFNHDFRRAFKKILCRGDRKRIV
Assay: Alpha2A agonistic activity in vitro
Format: cell-based

[1] = in vitro, read-out: Alpha2A Agonism pEC50 (converted)
[2] = Alpha2A Agonism pEC50, in vitro

SMILES	Alpha2A Intrinsic Activity (in vitro)	EC50 [1] [µM]	EC50 [2] [µM]
COc1cccc2c1C[C@@H](C)OC2(C)C1=NCCN1 (stereo partly drawn) [Example 71, 2-((3R)-5-methoxy-1,3-dimethylisochroman-1-yl)-4,5-dihydro-1H-imidazole]	0.33	2	
FC(F)(F)Cc1cccc2c1CCOC2C1=NCCN1 (stereo not shown) [Example 72, 2-(5-(2,2,2-Trifluoroethyl)isochroman-1-yl)-4,5-dihydro-1H-imidazole]	0.09	1.58	
CCc1cccc2c1C[C@@H](C)OC2(C)C1=NCCN1 (stereo partly drawn) [Example 73, 2-((3R)-5-ethyl-1,3-dimethylisochroman-1-yl)-4,5-dihydro-1H-imidazole]	0.19	1.58	
COCC1Cc2c(C)cccc2C(C2=NCCN2)O1 (stereo not shown) [Example 74, 2-(5-Methyl-3-(methoxymethyl)isochroman-1-yl)-4,5-dihydro-1H-imidazole]	0.35	0.794	
Cc1cc(O)cc2c1CCOC2C1=NCCN1 (stereo not shown) [Example 75, 1-(4,5-Dihydro-1H-imidazol-2-yl)-5-methylisochroman-7-ol]	0.64	0.631	
CCC1Cc2c(O)cccc2C(C2=NCCN2)O1 (stereo not shown) [Example 76, 1-(4,5-Dihydro-1H-imidazol-2-yl)-3-ethylisochroman-5-ol]	0.15	0.631	
Cc1cccc2c1CCSC2(C)C1=NCCN1 (stereo not shown) [Example 78, 2-(1,5-Dimethylisothiochroman-1-yl)-4,5-dihydro-1H-imidazole]	0.62	0.501	
FC(F)(F)Oc1cccc2c1CCOC2C1=NCCN1 (stereo not shown) [Example 79, 2-(5-(Trifluoromethoxy)isochroman-1-yl)-4,5-dihydro-1H-imidazole]	0.30	0.398	
Cc1cccc2c1CC(CCF)OC2C1=NCCN1 (stereo not shown) [Example 81, 2-(3-(2-Fluoroethyl)-5-methylisochroman-1-yl)-4,5-dihydro-1H-imidazole]	0.54	0.158	
Cc1cccc2c1CC(CC(F)F)OC2C1=NCCN1 (stereo not shown) [Example 84, 2-(3-(2,2-Difluoroethyl)-5-methylisochroman-1-yl)-4,5-dihydro-1H-imidazole]	0.45		0.1
COc1cc(C)c2c(c1)C(C1=NCCN1)OC(C)C2 (stereo not shown) [Example 85, 2-(7-Methoxy-3,5-dimethylisochroman-1-yl)-4,5-dihydro-1H-imidazole]	0.22	1	
CSc1cccc2c1CCOC2C1=NCCN1 (stereo not shown) [Example 87, 2-(5-(Methylthio)isochroman-1-yl)-4,5-dihydro-1H-imidazole]	0.75		0.0631
FC(F)Oc1cccc2c1CCOC2C1=NCCN1 (stereo not shown) [Example 90, 2-(5-(Difluoromethoxy)isochroman-1-yl)-4,5-dihydro-1H-imidazole]	0.66		0.0398
CC[C@@H]1Cc2c(OC)cccc2C(C2=NCCN2)O1 (stereo partly drawn) [Example 91, 2-((3R)-3-ethyl-5-methoxyisochroman-1-yl)-4,5-dihydro-1H-imidazole]	0.51		0.0398
C[C@@H]1Cc2c(OC(F)F)cccc2C(C2=NCCN2)O1 (stereo partly drawn) [Example 93, 2-((3R)-5-(difluoromethoxy)-3-methylisochroman-1-yl)-4,5-dihydro-1H-imidazole]	0.64		0.0316
CC1(C2=NCCN2)OCc2cccc3cccc1c23 (stereo not shown) [Example 98, 2-(1-Methyl-1,3-dihydrobenzo[de]isochromen-1-yl)-4,5-dihydro-1H-imidazole]	0.58		0.0126
FC(F)c1cccc2c1CCOC2C1=NCCN1 (stereo not shown) [Example 99, 2-(5-(Difluoromethyl)isochroman-1-yl)-4,5-dihydro-1H-imidazole]	0.73		0.0126
c1cc2c3c(cccc3c1)C(C1=NCCN1)OC2 (stereo not shown) [Example 102, 2-(1,3-Dihydrobenzo[de]isochromen-1-yl)-4,5-dihydro-1H-imidazole]	0.82		0.00251
CC1OC(C2=NCCN2)c2cccc3cccc1c23 (stereo not shown) [Example 104, 2-(3-Methyl-1,3-dihydrobenzo[de]isochromen-1-yl)-4,5-dihydro-1H-imidazole]	0.95		0.00316
CCC1OC(C2=NCCN2)c2cccc3cccc1c23 (stereo not shown) [Example 105, 2-(3-Ethyl-1,3-dihydrobenzo[de]isochromen-1-yl)-4,5-dihydro-1H-imidazole]	0.66		0.0398
